Where a name gives a salt, the structure may show the parent alone. Some results are limits rather than exact numbers.

Take `N=C(N)SCc1cccc2c1Oc1c(CSC(=N)N)cccc1S2` (as salt: hydrobromid) [Example 1.12, phenoxathiine-4,6-diylbis(methylene) dicarbamimidothioate dihydrobromide]: the melting point is over 230 °C. Next, `N=C(N)SCc1cccc2sc3cccc(CSC(=N)N)c3c12` (as salt: hydrobromid) [Example 1.14, dibenzo[b,d]thiophene-1,9-diylbis(methylene) dicarbamimidothioate dihydrobromide]: 228 to 230 °C. The value for `N=C(N)SCc1cccc2c1-c1c(CSC(=N)N)cccc1C2=O` (as salt: hydrobromid) [Example 1.15, (9-oxo-9H-fluorene-4,5-diyl)bis(methylene) dicarbamimidothioate dihydrobromide] was 218 to 220 °C; that for `N=C(N)SCc1cccc2c(=O)c3cccc(CSC(=N)N)c3oc12` (as salt: hydrobromid) [Example 1.16, (9-oxo-9H-xanthene-4,5-diyl)bis(methylene) dicarbamimidothioate dihydrobromide] was over 230 °C; that for `Cc1c2cccc(CSC(=N)N)c2nc2c(CSC(=N)N)cccc12` (as salt: hydrobromid) [Example 1.17, (9-methylacridine-4,5-diyl)bis(methylene) dicarbamimidothioate dihydrobromide] was > 270 °C (dec.). The value for `N=C(N)SCc1cccc2c1-c1c(cccc1CSC(=N)N)CSC2` (as salt: hydrobromid) [Example 1.19, (5,7-dihydrodibenzo[c,e]thiepine-1,11-diyl)bis(methylene) dicarbamimidothioate dihydrobromide] was 155 to 158 °C.

With `N=C(N)SCc1cc(F)cc2c1-c1c(CSC(=N)N)cc(F)cc1-2` (as salt: hydrobromid) [Example 5, (3,6-difluorobiphenylene-1,8-diyl)bis(methylene) dicarbamimidothioate dihydrobromide], the melting point is over 250 °C.

Source of the values: patent publication US20090069408A1, “TRICYCLIC COMPOUNDS USEFUL IN TREATING IRON DISORDERS” (XENON PHARMACEUTICALS INC., priority 2007, published 2009).
